Measured values from article PMC8498988, “Scaffold Hybridization Strategy Leads to the Discovery of Dopamine D3 Receptor-Selective or Multitarget Bitopic Ligands Potentially Useful for Central Nervous System Disorders” (ACS Chemical Neuroscience, 2021).
Where a name gives a salt, the structure may show the parent alone. Marks after values point to notes of the source that are not given here. One block for each compound: values may come before it.

Assays:
D2R = D2R (Homo sapiens, UniProt P14416); assay: Radioligand competition binding at human D2R ([3H]N-methylspiperone, HEK293 membranes); set-up: expressed in transfected cells; host or cells: HEK293; conditions: for inhibition at 10 µM / inhibition percentage of the radioligand binding, D2R: test compound concentration of 10 μM; for inhibition at 10 µM: read-out: inhibition percentage of the radioligand binding, D2R; for Ki: HEK 293 cells expressing hD2R, read-out: Ki ± SEM, D2R; for inhibition percentage of the radioligand binding, D2R: 10 µM
Experimental: (§1) The novel hybrid derivatives 3–11 were tested at hD2R, hD3R, or hD4R stably expressed in HEK293 cells by competition binding assays, using [^3H]N-methylspiperone as the radioligand, to evaluate their D2-like affinity and subtype selectivity, following the previously reported procedures.[41],[45],[46]
(§2) Binding at dopamine D2-like receptors was determined using previously described methods.[41],[45],[46] Membranes were prepared from HEK293 cells stably expressing human D2, D3, or D4, grown in a 50:50 mix of Dulbecco’s minimal essential medium (DMEM) and Ham’s F12 culture media, supplemented with 20 mM HEPES, 2 mM L-glutamine, 0.1 mM nonessential amino acids, 1× antibiotic/antimycotic, 10% heat-inactivated fetal bovine serum, and 200 μg/mL hygromycin (Life Technologies, Grand Island, NY) and kept in an incubator at 37 °C and 5% CO2. Upon reaching 80–90% confluency, the cells were harvested using premixed Earle’s Balanced Salt Solution (EBSS) with 5 μM EDTA (Life Technologies) and centrifuged at 3000 rpm for 10 min at 21 °C. The supernatant was removed, and the pellet was resuspended in 10 mL hypotonic lysis buffer (5 mM MgCl2, 5 mM Tris, pH 7.4 at 4 °C) and centrifuged at 20,000 rpm for 30 min at 4 °C. The pellet was then resuspended in fresh EBSS buffer made from 8.7 g/L Earle’s Balanced Salts without phenol red (US Biological, Salem, MA), 2.2 g/L sodium bicarbonate, pH to 7.4. A Bradford protein assay (Bio-Rad, Hercules, CA) was used to determine the protein concentration, and membranes were diluted to 500 μg/mL and stored at −80 °C for later use. Radioligand competition binding experiments were conducted using thawed membranes. Test compounds were freshly dissolved in 30% DMSO and 70% H2O to a stock concentration of 100 μM. To assist the solubilization of free-base compounds, 10 μL of glacial acetic acid was added along with DMSO. Each test compound was then diluted into 13 half-log serial dilutions using 30% DMSO vehicle; the final test concentrations ranged from 10 μM to 10 pM. The previously frozen membranes were diluted in fresh EBSS to a 100 μg/mL (for D2 or D3) or 200 μg/mL (D4) stock for binding. Radioligand competition experiments were conducted in glass tubes containing 300 μL of fresh EBSS buffer, 50 μL of diluted test compound, 100 μL of membranes (10 μg of total protein for D2 or D3 and 20 μg of total protein for D4), and 50 μL of [^3H]N-methylspiperone (0.4 nM final concentration; PerkinElmer). Nonspecific binding was determined using 10 μM butaclamol (Sigma-Aldrich, St. Louis, MO), and total binding was determined with the 30% DMSO vehicle. All compound dilutions were tested in triplicate and the reaction was incubated for 1 h at room temperature. The reaction was terminated by filtration through Whatman GF/B filters, presoaked for 1 h in 0.5% polyethylenimine, using a Brandel R48 filtering manifold (Brandel Instruments, Gaithersburg, MD). The filters were washed three times with 3 mL of ice-cold EBSS buffer and transferred to scintillation vials. CytoScint liquid scintillation cocktail (3 mL, MP Biomedicals, Solon, OH) was added, and vials were counted using a PerkinElmer Tri-Carb 2910 TR liquid scintillation counter (Waltham, MA).

D3R = D3R (Homo sapiens, UniProt P35462); assay: Radioligand competition binding at human D3R ([3H]N-methylspiperone, HEK293 membranes); set-up: expressed in transfected cells; host or cells: HEK293; conditions: for Ki: HEK 293 cells expressing hD3R, read-out: Ki ± SEM, D3R; for D2/D3: ratio of Ki values D2R/D3R; for D4/D3: ratio of Ki values D4R/D3R
Experimental: as §1, §2

D4R = molecular target: T1, D4R (Homo sapiens, UniProt P21917); assay: Radioligand competition binding at human D4R ([3H]N-methylspiperone, HEK293 membranes); set-up: expressed in transfected cells; host or cells: HEK293; conditions: for inhibition at 10 µM / inhibition percentage of the radioligand binding, D4R: test compound concentration of 10 μM; for inhibition at 10 µM: read-out: inhibition percentage of the radioligand binding, D4R; for Ki: HEK 293 cells expressing hD4R, read-out: Ki ± SEM, D4R; for inhibition percentage of the radioligand binding, D4R: 10 µM
T1 sequence (P21917 1-419): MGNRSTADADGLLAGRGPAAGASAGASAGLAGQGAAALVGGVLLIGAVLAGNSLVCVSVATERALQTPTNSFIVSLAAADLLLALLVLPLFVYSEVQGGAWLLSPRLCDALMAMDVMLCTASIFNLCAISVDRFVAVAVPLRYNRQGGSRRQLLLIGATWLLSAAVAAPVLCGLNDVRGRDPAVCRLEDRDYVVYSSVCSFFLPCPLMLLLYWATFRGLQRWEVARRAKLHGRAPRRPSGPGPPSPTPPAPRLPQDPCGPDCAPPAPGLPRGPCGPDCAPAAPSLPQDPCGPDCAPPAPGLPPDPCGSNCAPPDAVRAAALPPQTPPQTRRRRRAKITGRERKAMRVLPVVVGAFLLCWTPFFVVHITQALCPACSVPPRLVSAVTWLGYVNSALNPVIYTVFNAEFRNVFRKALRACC
Experimental: as §1, §2

D2R, sequence (P14416 whole entry): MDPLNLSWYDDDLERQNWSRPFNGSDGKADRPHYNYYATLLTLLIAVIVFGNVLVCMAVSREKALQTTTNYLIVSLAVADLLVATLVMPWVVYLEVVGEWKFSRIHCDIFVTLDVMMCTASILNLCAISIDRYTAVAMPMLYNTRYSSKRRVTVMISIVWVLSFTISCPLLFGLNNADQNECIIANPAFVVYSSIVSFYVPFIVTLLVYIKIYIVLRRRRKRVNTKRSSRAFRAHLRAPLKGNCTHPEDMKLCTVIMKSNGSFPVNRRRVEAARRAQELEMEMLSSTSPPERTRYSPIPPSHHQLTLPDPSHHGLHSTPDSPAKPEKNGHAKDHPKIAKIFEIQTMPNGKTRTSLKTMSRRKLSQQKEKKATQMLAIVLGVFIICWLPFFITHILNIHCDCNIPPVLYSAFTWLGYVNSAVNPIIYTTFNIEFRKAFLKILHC
D3R, sequence (P35462 whole entry): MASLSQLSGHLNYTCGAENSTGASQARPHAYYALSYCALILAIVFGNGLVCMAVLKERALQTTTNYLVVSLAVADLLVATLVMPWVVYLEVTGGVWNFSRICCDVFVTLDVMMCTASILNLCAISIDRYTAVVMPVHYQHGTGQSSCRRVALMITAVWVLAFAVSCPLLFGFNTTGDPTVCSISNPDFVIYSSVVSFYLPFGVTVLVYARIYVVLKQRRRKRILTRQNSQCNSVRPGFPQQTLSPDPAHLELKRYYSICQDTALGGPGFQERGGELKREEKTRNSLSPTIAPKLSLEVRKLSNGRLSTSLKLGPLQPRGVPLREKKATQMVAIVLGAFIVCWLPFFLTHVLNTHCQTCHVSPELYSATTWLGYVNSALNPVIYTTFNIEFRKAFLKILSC

inhibition percentage of the radioligand binding, D2R (D2R): 8.7% ^c
inhibition percentage of the radioligand binding, D3R (D3R; test compound concentration of 10 μM, [3H]N-methylspiperone, 10 µM): 65.4% ^c
inhibition percentage of the radioligand binding, D4R (D4R): 26.6% ^c
Compound: O=C(NCCC(F)CN1CCN(c2cccc(Cl)c2Cl)CC1)C1COc2ccccc2O1 (stereo not drawn) [11b, N-(4-(4-(2,3-Dichlorophenyl)piperazin-1-yl)-3-fluorobutyl)-2,3-dihydrobenzo[b][1,4]dioxine-2-carboxamide]

inhibition at 10 µM (D2R): 10.6%
inhibition at 10 µM (D3R; test compound concentration of 10 μM, [3H]N-methylspiperone, read-out: inhibition percentage of the radioligand binding, D3R): 54.8%
inhibition at 10 µM (D4R): 29.4%
Compound: O=C(NCCC(F)CN1CCN(c2cccc(Cl)c2Cl)CC1)C1COc2ccccc2O1 (stereo not drawn) [11a, N-(4-(4-(2,3-Dichlorophenyl)piperazin-1-yl)-3-fluorobutyl)-2,3-dihydrobenzo[b][1,4]dioxine-2-carboxamide]

melting point: 200 to 201 °C
Compound: O=C(NCCC(F)CN1CCN(c2cccc(Cl)c2Cl)CC1)C1COc2ccccc2O1 (stereo not drawn) (as salt: oxalate) [11a, N-(4-(4-(2,3-Dichlorophenyl)piperazin-1-yl)-3-fluorobutyl)-2,3-dihydrobenzo[b][1,4]dioxine-2-carboxamide]

Second part, the compound before the results:

Compound: O=C(NCCC(O)CN1CCN(c2cccc(Cl)c2Cl)CC1)C1COc2ccccc2O1 (single isomer, unassigned) (as salt: oxalate) [10a, N-(4-(4-(2,3-Dichlorophenyl)piperazin-1-yl)-3-hydroxybutyl)-2,3-dihydrobenzo[b][1,4]dioxine-2-carboxamide]
melting point: 88 to 89 °C

Compound: O=C(NCCC(F)CN1CCN(c2cccc(Cl)c2Cl)CC1)C1COCC(c2ccccc2)(c2ccccc2)O1 (stereo not drawn) [compound 5, N-(4-(4-(2,3-Dichlorophenyl)piperazin-1-yl)-3-fluorobutyl)-6,6-diphenyl-1,4-dioxane-2-carboxamide]
inhibition at 10 µM (D2R): 21.2%
Ki (D3R; [3H]N-methylspiperone): 716 ± 178 nM
inhibition at 10 µM (D4R): 19.1%

Compound: O=C(NCCC(O)CN1CCN(c2cccc(Cl)c2Cl)CC1)C1COCC(c2ccccc2)(c2ccccc2)O1 (stereo not drawn) [4a, N-(4-(4-(2,3-Dichlorophenyl)piperazin-1-yl)-3-hydroxybutyl)-6,6-diphenyl-1,4-dioxane-2-carboxamide]
inhibition at 10 µM (D2R): 39.5%
Ki (D3R; [3H]N-methylspiperone): 164 ± 52 nM
inhibition at 10 µM (D4R): 39.2%

Compound: O=C(NCCC(O)CN1CCN(c2cccc(Cl)c2Cl)CC1)C1COC(c2ccccc2)(c2ccccc2)CO1 (stereo not drawn) [compound 7, N-(4-(4-(2,3-Dichlorophenyl)piperazin-1-yl)-3-hydroxybutyl)-5,5-diphenyl-1,4-dioxane-2 Carboxamide]
Ki (D2R): 526 ± 28.2 nM
Ki (D3R; [3H]N-methylspiperone): 23.4 ± 3.1 nM
D2/D3 (D3R): 23
D4/D3 (D3R): 17
Ki (D4R): 390 ± 46 nM

Compound: O=C(NCCC(O)CN1CCN(c2cccc(Cl)c2Cl)CC1)C1COCC(c2ccccc2)(c2ccccc2)O1 (single isomer, unassigned) (as salt: oxalate) [4a, N-(4-(4-(2,3-Dichlorophenyl)piperazin-1-yl)-3-hydroxybutyl)-6,6-diphenyl-1,4-dioxane-2-carboxamide]
melting point: 146 to 147 °C

Compound: O=C(NCCCCN1CCN(c2cccc(Cl)c2Cl)CC1)C1COCC(c2ccccc2)(c2ccccc2)O1 (stereo not drawn) (as salt: oxalate) [compound 3, N-(4-(4-(2,3-Dichlorophenyl)piperazin-1-yl)butyl)-6,6-diphenyl-1,4-dioxane-2-carboxamide]
melting point: 107 to 108 °C

Compound: O=C(NCCC(O)CN1CCN(c2cccc(Cl)c2Cl)CC1)C1COCC(c2ccccc2)(c2ccccc2)O1 (stereo not drawn) [4b, N-(4-(4-(2,3-Dichlorophenyl)piperazin-1-yl)-3-hydroxybutyl)-6,6-diphenyl-1,4-dioxane-2-carboxamide]
inhibition percentage of the radioligand binding, D2R (D2R): 41% ^c
Ki (D3R; [3H]N-methylspiperone): 77.1 ± 25.5 nM
inhibition percentage of the radioligand binding, D4R (D4R): 54.4% ^c

Compound: O=C(NCCCCN1CCN(c2cccc(Cl)c2Cl)CC1)C1COc2ccccc2O1 (stereo not drawn) (as salt: oxalate) [compound 9, N-(4-(4-(2,3-Dichlorophenyl)piperazin-1-yl)butyl)-2,3-dihydrobenzo[b][1,4]dioxine-2-carboxamide]
melting point: 167 to 168 °C

Compound: O=C(NCCC(F)CN1CCN(c2cccc(Cl)c2Cl)CC1)C1COCC(c2ccccc2)(c2ccccc2)O1 (stereo not drawn) (as salt: oxalate) [compound 5, N-(4-(4-(2,3-Dichlorophenyl)piperazin-1-yl)-3-fluorobutyl)-6,6-diphenyl-1,4-dioxane-2-carboxamide]
melting point: 100 to 101 °C

Compound: O=C(NCCC(F)CN1CCN(c2cccc(Cl)c2Cl)CC1)C1COC(c2ccccc2)(c2ccccc2)CO1 (stereo not drawn) [compound 8, N-(4-(4-(2,3-Dichlorophenyl)piperazin-1-yl)-3-fluorobutyl)-5,5-diphenyl-1,4-dioxane-2-carboxamide]
Ki (D2R): 1200 ± 210 nM
Ki (D3R; [3H]N-methylspiperone): 295 ± 100 nM
D2/D3 (D3R): 4
inhibition at 10 µM (D4R): 43.6%

Compound: O=C(NCCC(F)CN1CCN(c2cccc(Cl)c2Cl)CC1)C1COC(c2ccccc2)(c2ccccc2)CO1 (stereo not drawn) (as salt: oxalate) [compound 8, N-(4-(4-(2,3-Dichlorophenyl)piperazin-1-yl)-3-fluorobutyl)-5,5-diphenyl-1,4-dioxane-2-carboxamide]
melting point: 126 to 127 °C

Compound: O=C(NCCC(O)CN1CCN(c2cccc(Cl)c2Cl)CC1)C1COc2ccccc2O1 (stereo not drawn) [10b, N-(4-(4-(2,3-Dichlorophenyl)piperazin-1-yl)-3-hydroxybutyl)-2,3-dihydrobenzo[b][1,4]dioxine-2-carboxamide]
Ki (D2R): 783 ± 19 nM
Ki (D3R; [3H]N-methylspiperone): 23.4 ± 2.4 nM
D4/D3 (D3R): 10
Ki (D4R): 244 ± 54 nM

Compound: O=C(NCCCCN1CCN(c2cccc(Cl)c2Cl)CC1)C1COC(c2ccccc2)(c2ccccc2)CO1 (stereo not drawn) (as salt: oxalate) [compound 6, N-(4-(4-(2,3-Dichlorophenyl)piperazin-1-yl)butyl)-5,5-diphenyl-1,4-dioxane-2-carboxamide]
melting point: 94 to 95 °C

Compound: O=C(NCCC(O)CN1CCN(c2cccc(Cl)c2Cl)CC1)C1COC(c2ccccc2)(c2ccccc2)CO1 (stereo not drawn) (as salt: oxalate) [compound 7, N-(4-(4-(2,3-Dichlorophenyl)piperazin-1-yl)-3-hydroxybutyl)-5,5-diphenyl-1,4-dioxane-2 Carboxamide]
melting point: 132 to 133 °C

Compound: O=C(NCCC(O)CN1CCN(c2cccc(Cl)c2Cl)CC1)C1COc2ccccc2O1 (stereo not drawn) [10a, N-(4-(4-(2,3-Dichlorophenyl)piperazin-1-yl)-3-hydroxybutyl)-2,3-dihydrobenzo[b][1,4]dioxine-2-carboxamide]
Ki (D2R): 1100 ± 125 nM
Ki (D3R; [3H]N-methylspiperone): 44.1 ± 8.2 nM
D2/D3 (D3R): 25
D4/D3 (D3R): 6
Ki (D4R): 282 ± 76 nM
